Measured values from US20250346629A1, “USE OF D-ENANTIOMERIC PEPTIDE LIGANDS OF MONOMERIC ALPHA-SYNUCLEIN FOR THE THERAPY OF VARIOUS SYNUCLEINOPATHIES” (PRIAVOID GMBH, priority 2021, published 2025).
Square brackets hold non-standard residues; d marks the D form. Peptide text beside a SMILES is read from it.

What was measured:
PC12 cells = format: cell-based; details: rat, 24 h, 0.5 μM
Procedure: PC12 cells (Leibniz-Institut DSMZ, GE) were cultured at 37° C. on a collagen A-coated (Biochrom GmbH, GE) tissue culture flask in RPMI 1640 medium, supplemented with 5% fetal calf serum and 10% horse serum in an atmosphere humidified to 95% with 5% CO2. 10 000 cells per well in a volume of 100 μl were seeded into collagen A-coated 96-well plates (Thermo Fisher Scientific, USA and incubated for 24 hours at 37° C. and 300 rpm in a thermocycler.
Furthermore, 15 μM of the peptides alone, cell media, buffer without peptide and 0.1% Triton X-100 (cytotoxic compound) were used as controls. After further incubation in a 95% humidified atmosphere with 5% CO2 at 37° C. for 24 hours, the viability of the cells was measured using the Cell Proliferation Kit I (MTT) (Roche Applied Science, CH), following the manufacturer's protocol.
The MTT-formazan product was quantified by measuring the absorbance at 570 nm, corrected by subtracting the absorbance at 660 nm, in a FluoroStar Optima plate reader (BMG labtech, GE). All results were normalized to untreated cells grown only in medium. The significance test was carried out by one-way ANOVA with Bonferroni post-hoc analysis (OriginPro 2020, OriginLab, USA; n=4).
The significance test was carried out by one-way ANOVA with Bonferroni post-hoc analysis: […], ***p≤0.01. The means are stated±SD (n=4).

monomeric α-syn = monomeric α-syn (Homo sapiens, UniProt P37840); assay: Size-exclusion chromatography of monomeric α-syn after incubation with SVD-1a (FIG. 13); format: biochemical; details: 10 μM α-syn monomer with 0-80 μM SVD-1a, 2 h, 37° C., 300 rpm
Procedure: 10 μM α-syn monomer were incubated with 0, 5, 10, 20, 40 and 80 μM SVD-1a in PBS, pH 7.4, for 2 h at 37° C. and 300 rpm. The SEC was carried out with a Bio SEC-3 column (150 Å, Agilent, USA) at 1 ml min^−1 and PBS, pH 7.4, as mobile phase. The samples were centrifuged for 5 minutes at 20 800×g before the supernatant was injected. The protein was detected at A214. α-syn monomer eluted after 6.91 min retention time. The peak area of the α-syn monomer was integrated for the 10 μM α-syn sample and set to 100%. The concentration of monomeric α-syn was not reduced in the presence of increasing concentrations of SVD-1a. SVD-1a itself was only eluted during the purification and regeneration procedure of the SEC, which is highly probably attributable to its high net positive charge.

15N-labeled α-syn = 15N-labeled α-syn (Homo sapiens, UniProt P37840); assay: NMR analysis (HSQC, PRE) of 15N-labeled α-syn with SVD-1a (FIG. 12); format: binding; details: 25 μM α-syn : SVD-1a 1:1, PBS pH 7.4, 10° C.
Procedure: Analogs of SVD-1a spin-labeled with nitroxyl radicals were produced by reacting (1-oxyl-2,2,5,5-tetramethyl-Δ3-pyrroline-3-methyl) methanethiosulfonate (MTSL) (Toronto Research Chemicals, USA) with SVD-1a_Cys, leading to covalent bonding of the nitroxyl radical spin label MTSL to the C-terminal D-cysteine residue. A fivefold molar excess of MTSL relative to the peptide, i.e. ˜4 mg MTSL (˜15 μmol) was dissolved in 90 μl N,N-dimethylformamide (DMF) and mixed with 810 μl 200 mM HEPES/NaOH buffer, pH 7.6. The solution was then added to ˜5 mg (˜3 μmol) of lyophilized SVD-1a_Cys. […]
The samples were produced at final concentrations of 25 μM full-length ^15N-labeled acetyl-α-syn in the absence (reference) and in the presence of an equimolar amount of SVD-1a (not isotope-labeled, therefore invisible to NMR) in PBS buffer, pH 7.4, with addition of 5% D2O as internal reference. 2D-^1H-^15N-HSQC spectra were recorded back-to-back with a Bruker AVANCE NEO spectrometer (Bruker, USA) at 1200 MHz proton Larmor frequency. […]
The NMR datasets were processed using the Bruker TopSpin software (Version 4.1.1) and visualized using CcpNmr Analysis (v2.4.2) (50). […] From the residue-specific changes in chemical shift in the ^1H and ^15N dimensions, an absolute change in chemical shift was calculated according to the following formula: […]

Which “cells saved (cell viability)” value (PC12 cells) does the source give for `CC[C@@H](C)[C@@H](NC(=O)[C@@H](Cc1c[nH]cn1)NC(=O)[C@@H](CCC(=O)O)NC(=O)[C@@H](CCC(N)=O)NC(=O)[C@@H](Cc1c[nH]c2ccccc12)NC(=O)[C@@H](Cc1ccc(O)cc1)NC(=O)[C@H](NC(=O)[C@@H](CCC(=O)O)NC(=O)[C@@H](Cc1c[nH]cn1)NC(=O)[C@H](NC(=O)[C@H]1CCCN1C(=O)[C@@H](CC(C)C)NC(=O)[C@H](N)CCCNC(=N)N)[C@H](C)O)[C@H](C)O)C(=O)N[C@H](Cc1c[nH]c2ccccc12)C(=O)N[C@H](Cc1c[nH]cn1)C(=O)N[C@H](C)C(=O)N[C@H](CCCNC(=N)N)C(=O)N[C@H](CCCNC(=N)N)C(=O)N[C@H](CCCNC(=N)N)C(=O)N[C@H](CCCNC(=N)N)C(=O)N[C@H](CCCNC(=N)N)C(N)=O` [SVD-1a, rlpthetywqehiwharrrrr] (H-[dR][dL][dP][dT][dH][dE][dT][dY][dW][dQ][dE][dH][dI][dW][dH][dA][dR][dR][dR][dR][dR]-NH2) here?
The value was 82%.

What about the “concentration of monomeric α-syn (SEC peak area)” value (monomeric α-syn) of the same compound?
The value was “not reduced”.

And the “binding region on α-syn (PRE intensity ratios)” value (15N-labeled α-syn)?
The value was “somewhat more pronounced (transient) bonding interaction of SVD-1a with residues in the C-terminal region of α-syn”.
